Data taken from patent US20030198617A1, “Pharmaceutical tryptophan containing dipeptide compositions and methods of use thereof” (priority 1993, published 2003).
Where two headings read alike, the source gives them in different places.

What was measured:
Format in all cases: in vivo, human
[1] = Pregnant women (Examples 34, 87)
Procedure: Ile-Trp is administered to pregnant women. The route of administration is IM or intranasally 100 μg daily for 5-10 days.
The route of administration is IM or intranasally 100 μg daily for 5-10 days. […] It was also noted that there was a decrease in fetal hypoxia.

[2] = tested on: hemorrhagic Dengue Fever; assay: Hemorrhagic Dengue Fever (Examples 38, 94)
Source text: Ile-Trp is applied in patients with hemorrhagic Dengue Fever. […]
It was also noted that the muscular and bone pain experienced typically was reduced, and the immunological indices were normalized.

[3] = Antibiotic-treated patients with unfavorable allergological history
Procedure: Ile-Trp is applied in patients treated with antibiotics for various indications who have unfavorable allergological history. Ile-Trp is administered IM or intranasally single daily at 100 μg for 5-10 days.
Control group comprised 43 patients.

[4] = Cutaneous burns
Procedure: Patients with cutaneous burns are treated with Ile-Trp either IM or intranasally.

[5] = Eye problems, with conventional treatment
Procedure: Patients with various eye problems are treated by conventional methods, with one group receiving Ile-Trp in addition to the conventional treatment.

[6] = Gingival disease patients
Procedure: Patients are treated for gingival disease by subcutaneous administration of Ile-Trp in the area of the gingiva. […] Administration of 100 μg IM, subcutaneously, or by electrophoresis (whereby a small voltage charge to the gums results in a rapid transfer of medication through the gum epithelium) results in the arresting of bleeding, more rapid restoration of inflammatory processes, and the decrease of purulent discharge. The treatment results in fewer recurrences and prolongation of normal gums.

[7] = Chronic and acute ear infections
[8] = Bone-marrow compromise (transplant or radiation exposure)
[9] = Chemotherapy complications and side effects
[10] = tested on: antibiotic-resistant staphylococci; assay: Chronic skin diseases caused by antibiotic-resistant staphylococci
Procedure: Ile-Trp is administered to patients suffering from chronic skin diseases caused by antibiotic-resistant staphylococci. Ile-Trp is administered IM in single daily doses of 100 μg for 5 days and intranasally to a different group in the same daily and total dose. In the patients with signs of secondary T-immunodeficiency the staphylococci antibiotic sensitivity to one, few or all antibiotics is increased which then permits one to choose for each patient an effective antibiotic with exclusively high activity against a given pathogen.
47 patients with the same pathology but not treated with the immunomodulator were the control group. […] The differences between these methods of application were not noticed. In all the patients with signs of secondary T-immunodeficiency the staphylococci antibiotic-sensitivity to one, few or all antibiotics has been increased sharply (more than 100-fold) what permitted further to choose for each patient the antibiotic with exclusively high activity against pathogen. As a whole, within the examined group of patients the reliable decease of MIC of all studied antibiotics has been marked. The proposed treatment regiment permitted to obtain the complete recovery in 27 patients, significant improvement—in 8 patients and moderate improvement—in 1 patient.

[11] = Periapical granulomas; conditions: 3 days
Procedure: Patients with periapical granulomas treated with Ile-Trp are tested.

[12] = Chronic osteomyelitis
Procedure: Ile-Trp is prescribed to patients with chronic osteomyelitis of various etiology and localization. Ile-Trp is administered IM or intranasally single daily at 100 μg for 10 days.
The control group comprised 88 patients.

[13] = Bronchial asthma
Source text: Patients, children and adults, with bronchial asthma are studied. […] A significant reduction in bronchial obstruction and laryngotracheitis is noted.
A total of 37 patients, children and adults, with bronchial asthma and 28 similar patients as controls were studied. […] The significant reduction in bronchial obstruction and laryngotracheitis was noted. […] In some of the patients it was possible to avoid steroids in the conventional commitment treatment course. In the allowing year observation there was noted a decrease in the incidence of bronchial asthma 4.2 fold. In more than half of the patients the disappearance of drug and food allergy manifestations was noted.

[14] = tested on: leprosy; assay: Leprosy (Hansen's disease)
[15] = Symptom complexes: joint pain, muscle aches, fevers, chills (Examples 17, 66)
[16] = tested on: TB bacilli; conditions: 5 doses
[17] = Frostbite to the extremities
Procedure: Patients with frostbite to the extremities are treated with Ile-Trp either IM or intranasally.

[18] = Acne vulgaris patients
Source text: A number of patients within the group patients afflicted with furunculitis, pyoderma, cellulitis, and folliculitis are afflicted with acne vulgaris and acne. […] The clinical outcome correlates with the correction of immunological indices, and relapses are controlled.
A number of patients within the group of 159 patients afflicted with furunculitis, pyoderma, cellulitis, and folliculitis were afflicted with acne vulgaris and acne. […] The clinical outcome correlated with the correction of immunological indices, and relapses were controlled.

[19] = Massive hemotransfusions in post-operative period
Procedure: Patients exposed to massive hemotransfusions during post-operative period are treated with Ile-Trp. The peptide is administered starting from 4-6 day of post-operative period single daily IM or intranasally in doses 100 μg for 5 days.

## Ile-Trp
[1]; Ile-Trp 100 μg daily 5-10 days
  clinical effect: resolution of weakness, dizziness, and increased appetite
[2]; Ile-Trp IM 100 μg 5 days with conventional therapy
  clinical effect: reduction in fever
[3]; Ile-Trp 100 μg 5-10 days
  allergic reactions to antibiotics: prevents the arising of allergic reactions
[4]; Ile-Trp IM or intranasally
  clinical effect: Accelerated wound healing, diminished frequency of infections, and less eschar
[5]; Ile-Trp intra ocularly 18 μg 5 days or drops
  clinical effect: more rapid arresting of the inflammatory process
[6]; Ile-Trp, subcutaneous in the gingiva
  clinical effect: arresting of gingival disease
[7]; Ile-Trp with antibiotics
  clinical effect: accelerated healing of chronic and acute ear infections
[8]; Ile-Trp IM or intranasally
  clinical effect: improved immune parameters
[9]; Ile-Trp during chemotherapy
  clinical effect: fewer complications and side effects related to chemotherapy
[10]; Ile-Trp 100 μg 5 days, patients with secondary T-immunodeficiency
  staphylococci antibiotic sensitivity: is increased
[11]; Ile-Trp 100 μg instillation
  clinical effect: accelerated arrestation of the inflammatory process
[12]; Ile-Trp 100 μg 10 days
  clinical effect: pronounced positive influence on clinical course
[13]; Ile-Trp IM 1 μg/kg 5-10 days
  clinical effect: less severe clinical symptoms
[14]; Ile-Trp 100 μg 5 days with conventional therapy
  clinical effect: resolution of the lesions
[15]; Ile-Trp 100 μg 5-10 days
  clinical effect: accelerated reduction in symptom complexes
[16]; Ile-Trp 50 to 100 μg every other day, with conventional therapy
  clinical effect: disappearance of toxic symptoms
[17]; Ile-Trp IM or intranasally
  clinical effect: Rapid healing and restoration of tissue integrity
[18]; Ile-Trp group
  immunological indices: corrected and normalized rapidly
[19]; Ile-Trp 100 μg 5 days
  alloblood rejection: do not show clinical manifestation of alloblood rejection

## Glu-Trp [IM862]
[1]; IM862 100 μg daily 5-10 days, 34 women
  clinical effect: resolution of weakness, dizziness, and increased appetite
[2]; IM862 IM 100 μg 3 days with conventional therapy, 21 patients
  clinical effect: reduction in fever
[3]; IM862 100 μg 5-10 days, 76 patients, majority of cases
  allergic reactions to antibiotics: prevented the arising of allergic reactions
[4]; IM862 IM or intranasally, 23 patients
  clinical effect: Accelerated wound healing, diminished frequency of infections, and less eschar
[5]; IM862 intra ocularly 18 μg 5 days or drops, 41 patients
  clinical effect: more rapid arresting of the inflammatory process
[6]; IM862, subcutaneous in the gingiva
  clinical effect: arresting of gingival disease
[7]; IM862 with antibiotics
  clinical effect: accelerated healing of chronic and acute ear infections
[8]; IM862 IM or intranasally
  clinical effect: improved immune parameters
[9]; IM862 during chemotherapy
  clinical effect: fewer complications and side effects related to chemotherapy
[10]; IM862 100 μg 5 days, patients with secondary T-immunodeficiency
  increase of staphylococci antibiotic-sensitivity: more than 100 fold
[10]; IM862 treatment regimen
  complete recovery, number of patients: 27 patients
  moderate improvement, number of patients: 1 patient
  significant improvement, number of patients: 8 patients
[11]; IM862 100 μg instillation, 46 patients
  clinical effect: accelerated arrestation of the inflammatory process
[12]; IM862 100 μg 10 days, 176 patients
  clinical effect: pronounced positive influence on clinical course
[13]; IM862, following year observation
  decrease in the incidence of bronchial asthma: 4.2 fold
[13]; IM862 IM 1 μg/kg 5-10 days, 37 patients
  clinical effect: less severe clinical symptoms
[14]; IM862 100 μg 5 days with conventional therapy, 45 patients
  clinical effect: resolution of the lesions
[15]; IM862 100 μg 5-10 days, 156 patients
  clinical effect: accelerated reduction in symptom complexes
[16]; IM862 50 to 100 μg every other day, 2 months after the course, 37 patients
  clinical effect: disappearance of toxic symptoms
[17]; IM862 IM or intranasally, 17 patients
  clinical effect: rapid healing and restoration of tissue integrity
[18]; IM862 group
  immunological indices: corrected and normalized rapidly
[19]; IM862 100 μg 5 days, 76 patients
  alloblood rejection: None of studies patients showed clinical manifestation of alloblood rejection
